# Reference: ChEMBL document CHEMBL3885861, “Open TG-GATES”
# Species on record: Rattus norvegicus
# Assay: Open TG-GATES - Regimen: Single
# Type: toxicity, organism-based, Sprague-Dawley
# Parameters: regimen Single, gender Male, age 6 weeks
# Conditions: in vivo, po, 10 mg/kg, route gavage, dose level Middle; for APTT / Bas / Eos / Fbg / Hb / Ht / Lym / MCH / MCHC / MCV / Mono / Neu / PT / Plat / RBC / Ret / WBC: tissue Blood; for KIDNEY_L / KIDNEY_R / KIDNEY_TOTAL: tissue Kidney; for LIVER: tissue Liver; for A/G / ALP / ALT / AST / BUN / CRE / Ca / Cl / DBIL / GLC / IP / K / LDH / Na / PL / RALB / TBIL / TC / TG / TP / gamma-GTP: tissue Plasma
structure (smiles),measurement,setting,value
Nc1c2c(nc3ccccc13)CCCC2 [TACRINE],TERMINAL_BW,3 h,204.5 g
same,APTT,3 h,22.1 s
same,Bas,3 h,0%
same,Eos,3 h,0.8%
same,Fbg,3 h,297.8 mg/dL
same,Hb,3 h,13.3 g/dL
same,Ht,3 h,38.8%
same,Lym,3 h,70%
same,MCH,3 h,21.2 pg
same,MCHC,3 h,34.4%
same,MCV,3 h,61.5 fL
same,Mono,3 h,2.2%
same,Neu,3 h,26.8%
same,PT,3 h,16.5 s
same,Plat,3 h,123.9 x10_4/uL
same,RBC,3 h,630.4 x10_4/ul
same,Ret,3 h,8.5%
same,WBC,3 h,68 x10_2/uL
same,KIDNEY_L,3 h,0.9 g
same,KIDNEY_R,3 h,0.9 g
same,KIDNEY_TOTAL,3 h,1.8 g
same,LIVER,3 h,9.4 g
same,A/G,3 h,1.3
same,ALP,3 h,1472.8 IU/L
same,ALT,3 h,45 IU/L
same,AST,3 h,90.4 IU/L
same,BUN,3 h,11.8 mg/dL
same,CRE,3 h,0.2 mg/dL
same,Ca,3 h,10.6 mg/dL
same,Cl,3 h,106.4 meq/L
same,DBIL,3 h,0.006 mg/dL
same,GLC,3 h,213.4 mg/dL
same,IP,3 h,8.7 mg/dL
same,K,3 h,3.7 meq/L
same,LDH,3 h,205.8 IU/L
same,Na,3 h,141.8 meq/L
same,PL,3 h,140.4 mg/dL
same,RALB,3 h,3.2 g/dL
same,TBIL,3 h,0.03 mg/dL
same,TC,3 h,74.6 mg/dL
same,TG,3 h,66.6 mg/dL
same,TP,3 h,5.8 g/dL
same,gamma-GTP,3 h,1 IU/L
same,TERMINAL_BW,6 h,199.6 g
same,APTT,6 h,19.8 s
same,Bas,6 h,0%
same,Eos,6 h,0.6%
same,Fbg,6 h,317.2 mg/dL
same,Hb,6 h,13.6 g/dL
same,Ht,6 h,39.5%
same,Lym,6 h,75.4%
same,MCH,6 h,21 pg
same,MCHC,6 h,34.4%
same,MCV,6 h,60.8 fL
same,Mono,6 h,2%
same,Neu,6 h,21.2%
same,PT,6 h,15.6 s
same,Plat,6 h,119.2 x10_4/uL
same,RBC,6 h,649.6 x10_4/ul
same,Ret,6 h,7.8%
same,WBC,6 h,74.9 x10_2/uL
same,KIDNEY_L,6 h,0.9 g
same,KIDNEY_R,6 h,0.9 g
same,KIDNEY_TOTAL,6 h,1.8 g
same,LIVER,6 h,8.5 g
same,A/G,6 h,1.3
same,ALP,6 h,1669.4 IU/L
same,ALT,6 h,41.8 IU/L
same,AST,6 h,82.4 IU/L
same,BUN,6 h,10.6 mg/dL
same,CRE,6 h,0.2 mg/dL
same,Ca,6 h,10.6 mg/dL
same,Cl,6 h,107.4 meq/L
same,DBIL,6 h,0.002 mg/dL
same,GLC,6 h,201.2 mg/dL
same,IP,6 h,8.8 mg/dL
same,K,6 h,4.4 meq/L
same,LDH,6 h,290.6 IU/L
same,Na,6 h,141.8 meq/L
same,PL,6 h,161 mg/dL
same,RALB,6 h,3.1 g/dL
same,TBIL,6 h,0.028 mg/dL
same,TC,6 h,82.2 mg/dL
same,TG,6 h,50.8 mg/dL
same,TP,6 h,5.5 g/dL
same,gamma-GTP,6 h,1 IU/L
same,TERMINAL_BW,9 h,197 g
same,APTT,9 h,21.5 s
same,Bas,9 h,0%
same,Eos,9 h,1%
same,Fbg,9 h,312.4 mg/dL
same,Hb,9 h,13.4 g/dL
same,Ht,9 h,38.9%
same,Lym,9 h,76.2%
same,MCH,9 h,21.4 pg
same,MCHC,9 h,34.5%
same,MCV,9 h,61.9 fL
same,Mono,9 h,2.2%
same,Neu,9 h,20%
same,PT,9 h,15.9 s
same,Plat,9 h,119.1 x10_4/uL
same,RBC,9 h,628.6 x10_4/ul
same,Ret,9 h,7.5%
same,WBC,9 h,74.6 x10_2/uL
same,KIDNEY_L,9 h,0.9 g
same,KIDNEY_R,9 h,0.9 g
same,KIDNEY_TOTAL,9 h,1.8 g
same,LIVER,9 h,8.3 g
same,A/G,9 h,1.3
same,ALP,9 h,1332.6 IU/L
same,ALT,9 h,42.6 IU/L
same,AST,9 h,86.8 IU/L
same,BUN,9 h,11.8 mg/dL
same,CRE,9 h,0.1 mg/dL
same,Ca,9 h,10.7 mg/dL
same,Cl,9 h,107.4 meq/L
same,DBIL,9 h,0.004 mg/dL
same,GLC,9 h,183.8 mg/dL
same,IP,9 h,9.7 mg/dL
same,K,9 h,4.2 meq/L
same,LDH,9 h,186.8 IU/L
same,Na,9 h,142.2 meq/L
same,PL,9 h,137.8 mg/dL
same,RALB,9 h,3.1 g/dL
same,TBIL,9 h,0.026 mg/dL
same,TC,9 h,77 mg/dL
same,TG,9 h,43.6 mg/dL
same,TP,9 h,5.5 g/dL
same,gamma-GTP,9 h,1 IU/L
same,TERMINAL_BW,24 h,217.1 g
same,APTT,24 h,21.1 s
same,Bas,24 h,0%
same,Eos,24 h,1%
same,Fbg,24 h,305 mg/dL
same,Hb,24 h,13.5 g/dL
same,Ht,24 h,39.3%
same,Lym,24 h,79%
same,MCH,24 h,21.2 pg
same,MCHC,24 h,34.4%
same,MCV,24 h,61.6 fL
same,Mono,24 h,3%
same,Neu,24 h,15.8%
same,PT,24 h,15.9 s
same,Plat,24 h,116.9 x10_4/uL
same,RBC,24 h,638 x10_4/ul
same,Ret,24 h,7.4%
same,WBC,24 h,98.6 x10_2/uL
same,KIDNEY_L,24 h,1 g
same,KIDNEY_R,24 h,1 g
same,KIDNEY_TOTAL,24 h,2 g
same,LIVER,24 h,9.7 g
same,A/G,24 h,1.3
same,ALP,24 h,1669.4 IU/L
same,ALT,24 h,40.4 IU/L
same,AST,24 h,77.2 IU/L
same,BUN,24 h,17 mg/dL
same,CRE,24 h,0.2 mg/dL
same,Ca,24 h,11 mg/dL
same,Cl,24 h,106 meq/L
same,DBIL,24 h,0.004 mg/dL
same,GLC,24 h,183 mg/dL
same,IP,24 h,7.9 mg/dL
same,K,24 h,4.3 meq/L
same,LDH,24 h,229 IU/L
same,Na,24 h,141.4 meq/L
same,PL,24 h,161.6 mg/dL
same,RALB,24 h,3.1 g/dL
same,TBIL,24 h,0.022 mg/dL
same,TC,24 h,81 mg/dL
same,TG,24 h,97 mg/dL
same,TP,24 h,5.5 g/dL
same,gamma-GTP,24 h,1 IU/L
